Assays:
Format in all cases: cell-based, HIV-1
HIV strain K103N + Y181C = assay: Cellular anti-HIV assay in MT4 LTR-EGFP cells, mutant K103N + Y181C; conditions: Human immunodeficiency virus 1, 72 h, read-out: K103N + Y181C pEC50 (converted)
Procedure: (§1) Because of the increasing emergence of drug resistant HIV strains, the present compounds were tested for their potency against clinically isolated HIV strains harbouring several mutations. These mutations are associated with resistance to reverse transcriptase inhibitors and result in viruses that show various degrees of phenotypic cross-resistance to the currently commercially available drugs such as for instance AZT and delavirdine.
(§2) The antiviral activity of the compound of the present invention has been evaluated in the presence of wild type HIV and HIV mutants bearing mutations at the reverse transcriptase gene. The activity of the compounds is evaluated using a cellular assay which was performed according to the following procedure.
(§3) The human T-cell line MT4 is engineered with Green Fluorescent Protein (GFP) and an HIV-specific promoter, HIV-1 long terminal repeat (LTR). This cell line is designated MT4 LTR-EGFP, and can be used for the in vitro evaluation of anti-HIV activity of investigational compounds. In HIV-1 infected cells, the Tat protein is produced which upregulates the LTR promotor and finally leads to stimulation of the GFP reporter production, allowing to measure ongoing HIV-infection fluorometrically. Analogously, MT4 cells are engineered with GFP and the constitutional cytomegalovirus (CMV) promotor. This cell line is designated MT4 CMV-EGFP, and can be used for the in vitro evaluation of cytotoxicity of investigational compounds. In this cell line, GFP levels are comparably to those of infected MT4 LTR-EGFP cells. Cytotoxic investigational compounds reduce GFP levels of mock-infected MT4 CMV-EGFP cells.
(§4) Effective concentration values such as 50% effective concentration (EC50) can be determined and are usually expressed in μM. An EC50 value is defined as the concentration of test compound that reduces the fluorescence of HIV-infected cells by 50%. The 50% cytotoxic concentration (CC50 in μM) is defined as the concentration of test compound that reduces fluorescence of the mock-infected cells by 50%. The ratio of CC50 to EC50 is defined as the selectivity index (SI) and is an indication of the selectivity of the anti-HIV activity of the inhibitor. The ultimate monitoring of HIV-1 infection and cytotoxicity is done using a scanning microscope. Image analysis allows very sensitive detection of viral infection. Measurements are done before cell necrosis, which usually takes place about five days after infection, in particular measurements are performed three days after infection.
(§5) The columns IIIB, L100I, etc. in the table list the pEC50 values against various strains IIIB, L100I, etc.

HIV strain MDR = assay: Cellular anti-HIV assay in MT4 LTR-EGFP cells, MDR strain; conditions: Human immunodeficiency virus 1, read-out: MDR pEC50 (converted)
Procedure: as §1, §2, §3, §4, §5
MDR refers to a strain that contains mutations L100I, K103N, Y181C, E138G, V1791, L2214F, V278V/I and A327A/V in HIV reverse transcriptase.

HIV strain L100I = assay: Cellular anti-HIV assay in MT4 LTR-EGFP cells, mutant L100I; conditions: Human immunodeficiency virus 1, read-out: L100I pEC50 (converted)
Procedure: as §1, §2, §3, §4, §5

HIV strain K103N = assay: Cellular anti-HIV assay in MT4 LTR-EGFP cells, mutant K103N; conditions: Human immunodeficiency virus 1, read-out: K103N pEC50 (converted)
Procedure: as §1, §2, §3, §4, §5

HIV strain L100I + K103N = assay: Cellular anti-HIV assay in MT4 LTR-EGFP cells, mutant L100I + K103N; conditions: Human immunodeficiency virus 1, 72 h, read-out: L100I + K103N pEC50 (converted)
Procedure: as §1, §2, §3, §4, §5

HIV strain Y188L = assay: Cellular anti-HIV assay in MT4 LTR-EGFP cells, mutant Y188L; conditions: Human immunodeficiency virus 1, read-out: Y188L pEC50 (converted)
Procedure: as §1, §2, §3, §4, §5

[1] = tested on: HIV strain IIIB (wild type); assay: Cellular anti-HIV assay in MT4 LTR-EGFP cells, strain IIIB (wild type); selectivity index versus cytotoxicity in mock-infected MT4 CMV-EGFP cells; conditions: for EC50: Human immunodeficiency virus 1, 72 h, wild type HIV strain IIIB, MT4 LTR-EGFP cells, fluorescence, three days after infection, read-out: IIIB pEC50 (converted); for IIIB pSi: selectivity index = ratio of CC50 (mock-infected MT4 CMV-EGFP cells) to EC50 (IIIB), given as p value
Procedure: as §2, §3, §4, §5
Strain IIIB is wild type HIV strain

HIV strain Y181C = assay: Cellular anti-HIV assay in MT4 LTR-EGFP cells, mutant Y181C; conditions: Human immunodeficiency virus 1, read-out: Y181C pEC50 (converted)
Procedure: as §1, §2, §3, §4, §5

Row | SMILES | EC50 (HIV strain K103N + Y181C) | EC50 (HIV strain MDR) | EC50 (HIV strain L100I) | EC50 (HIV strain K103N) | EC50 (HIV strain L100I + K103N) | EC50 (HIV strain Y188L) | EC50 [1] | IIIB pSi [1] | EC50 (HIV strain Y181C)
1 | Cc1cc(/C=C/C#N)cc(C)c1Nc1nc(Nc2ccc(C#N)cc2)ncc1C(=O)NCCC#N [Compound 46] | 0.0398 µM | 0.158 µM | 0.00794 µM | 0.00398 µM | 0.0158 µM | 0.0316 µM | 0.00794 µM | >3.50 | 
2 | Cc1cc(/C=C/C#N)cc(C)c1Nc1nc(Nc2ccc(C#N)cc2)ncc1C(=O)NCCCN(C)C [Compound 43] | 0.0794 µM | 3.16 µM | 0.0501 µM | 0.01 µM | 0.126 µM | 0.0794 µM | 0.0126 µM | >3.30 | 0.0251 µM
3 | Cc1cc(/C=C/C#N)cc(C)c1Nc1nc(Nc2ccc(C#N)cc2)ncc1C(=O)NCCCN1CCCC1 [Compound 38] | 0.0158 µM | 2 µM | 0.0251 µM | 0.001 µM | 0.0631 µM | 0.0251 µM | 0.000794 µM | 3.70 | 0.02 µM
4 | Cc1cc(/C=C/C#N)cc(C)c1Nc1nc(Nc2ccc(C#N)cc2)ncc1C(=O)NCc1cccc(Br)c1 [Compound 29] | 0.1 µM | 10 µM | 0.0794 µM | 0.02 µM | 0.126 µM | 0.158 µM | 0.0158 µM | 3.00 | 0.0794 µM
5 | COc1ccccc1CNC(=O)c1cnc(Nc2ccc(C#N)cc2)nc1Nc1c(C)cc(/C=C/C#N)cc1C [Compound 27] | 0.0398 µM | 3.16 µM | 0.0501 µM | 0.00794 µM |  | 0.0794 µM | 0.00631 µM | >3.60 | 0.0398 µM
6 | Cc1cccc(CNC(=O)c2cnc(Nc3ccc(C#N)cc3)nc2Nc2c(C)cc(/C=C/C#N)cc2C)c1 [Compound 28] | 0.0501 µM | 7.94 µM | 0.0501 µM | 0.0158 µM |  | 0.126 µM | 0.0158 µM | 3.10 | 0.0794 µM
7 | CONC(=O)c1cnc(Nc2ccc(C#N)cc2)nc1Nc1c(C)cc(/C=C/C#N)cc1C [Compound 23] | 0.00794 µM | 0.794 µM | 0.00501 µM |  | 0.0126 µM | 0.0158 µM | 0.00398 µM | >3.80 | 0.0158 µM
8 | Cc1cc(/C=C/C#N)cc(C)c1Nc1nc(Nc2ccc(C#N)cc2)ncc1C(=O)NCCc1cccc(F)c1 [Compound 32] | 0.0794 µM | 10 µM | 0.0398 µM | 0.0158 µM |  | 0.1 µM | 0.0126 µM | 3.10 | 0.0794 µM
9 | Cc1ccc(CNC(=O)c2cnc(Nc3ccc(C#N)cc3)nc2Nc2c(C)cc(/C=C/C#N)cc2C)o1 [Compound 24] | 0.0501 µM | 5.01 µM | 0.0251 µM |  | 0.0794 µM | 0.0794 µM | 0.0158 µM | 3.00 | 0.0251 µM
10 | CCOC(=O)CCCNC(=O)c1cnc(Nc2ccc(C#N)cc2)nc1Nc1c(C)cc(/C=C/C#N)cc1C [Compound 45] | 0.0158 µM | 1 µM | 0.00631 µM | 0.002 µM |  | 0.02 µM | 0.00251 µM | >4.00 | 
11 | Cc1cc(/C=C/C#N)cc(C)c1Oc1nc(Nc2ccc(C#N)cc2)ncc1C(=O)NCc1ccncc1 [Compound 58] | 0.1 µM | 3.16 µM |  | 0.00631 µM | 0.316 µM | 0.158 µM | 0.002 µM | >4.10 | 

Reference: patent US8933089B2, “HIV inhibiting 5-amido substituted pyrimidines” (Janssen R & D Ireland, priority 2006, dated 2015)
